In patent US20150011566A1, “N-PHENYLPIPERAZINE DERIVATIVES THAT ARE ANTAGONISTS OF A1A, A1D ADRENOCEPTORS AND 5-HT1A RECEPTORS FOR THE TREATMENT OF BENIGN PROSTATE HYPERPLASIA, PHARMACEUTICAL COMPOSITIONS CONTAINING THE SAME” (UNIVERSIDADE FEDERAL DO RIO DE JANEIRO-UFRJ, priority 2012, published 2015):
pIC50, pKi: −log10 of the molar value. Where two headings read alike, the source gives them in different places.

Assays:
α1D adrenoceptors = biological target: T1, α1D adrenoceptors (Rattus norvegicus, UniProt P23944); test: Phenylephrine-induced contraction inhibition in rat aorta (isometric contraction, Schild KB); type: cell-based; set-up: CR: concentration ratio CR = EC′50/EC50 (with/without antagonist); settings: for Kb / log KB ± EPM (M): Schild equation; for CR ± EPM: ratio of EC50 in presence and absence of test substance
T1 construct: the rat thoracic aorta corresponds to a tissue expressing mainly α1D-adrenoceptors; from tissue; host or cells: rat thoracic aorta rings
T1 sequence (P23944 1-561): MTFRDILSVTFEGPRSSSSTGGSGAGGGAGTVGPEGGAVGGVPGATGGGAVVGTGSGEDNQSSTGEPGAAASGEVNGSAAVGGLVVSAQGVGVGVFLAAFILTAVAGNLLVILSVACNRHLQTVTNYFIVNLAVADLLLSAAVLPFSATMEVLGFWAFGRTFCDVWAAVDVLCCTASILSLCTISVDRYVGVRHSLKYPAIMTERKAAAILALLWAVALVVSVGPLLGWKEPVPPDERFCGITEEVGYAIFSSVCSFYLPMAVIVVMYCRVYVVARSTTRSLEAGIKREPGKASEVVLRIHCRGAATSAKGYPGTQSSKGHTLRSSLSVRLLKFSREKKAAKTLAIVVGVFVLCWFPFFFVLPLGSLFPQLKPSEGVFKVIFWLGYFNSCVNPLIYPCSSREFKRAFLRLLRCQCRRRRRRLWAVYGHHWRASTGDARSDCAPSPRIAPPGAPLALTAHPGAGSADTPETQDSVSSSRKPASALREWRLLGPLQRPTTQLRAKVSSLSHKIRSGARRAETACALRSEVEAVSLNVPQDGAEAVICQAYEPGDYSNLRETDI
Experimental: Isometric contraction assays were performed using Male Wistar rats, aged 2.5-3 months euthanized as described above. The thoracic aorta (tissue enriched in functional α1D adrenergic receptors) was removed, free from adjacent connective and adipose tissues cut in 3 mm segments. […] The aort segments were then subjected to a preload of 20 mN per 60 minutes. After recovery of tissues maintained for 1 hour at rest, it was performed a contraction induced by phenylephrine (PE) 1 μM (α1 adrenergic receptors selective agonist). In this plateau contraction, in order to promote endothelium-dependent relaxation resulting from the activation of the enzyme endothelial nitric oxide synthase (eNOS) and subsequent release of nitric oxide (NO), acetylcholine 1 μM was added. Rings that relaxed at least 80% were considered to have intact endothelium, were used.
Then the preparation was washed and allowed to stand for 1 hour in order to recover the tissue. Then it was performed cumulative curves to phenylephrine (10^−9 to 10^−5 M) in the presence of propranolol 1 μM (β-adrenoceptor blocker receptors) before and after incubation for 1 hour of the LDT's at 10 or 50 nM. In parallel, a temporal control was performed to rule out any artifacts on the measured contraction, where was added only the vehicle (ultrapure water Milli Q®) instead of the substance to be tested. Strictly following the same protocol as the other tanks wherein it was added the LDT's.
The data were scanned in MacLab 8S system connected to the isometric tension transducer Grass FT-03, which recorded the voltage variation in milinewtons (mN) generated throughout the analysis. The digitized data were then analyzed by Chart 3.4/s software program (MacLab, Inc., USA). In the pharmacological screening process, the initial concentration of the used LDT's was 50 nM, which is considered as cut concentration, i.e., substances that have no effect at this concentration would not investigated in this test. […] The ratio of the EC50 value in these two conditions (with and without LDT) matches the third parameter, called “concentration ratio” (or RC).
log(CR−1)=log [B]−log KB (Equation 1)
Where CR=concentration ratio (EC′50/EC50); [B]=‘B’ antagonist concentration; KB=equilibrium dissociation constant of the antagonist ‘B’.
With this in view, the functional tests of contraction in isolated organ model were performed using these tissues. […] Similarly, targeting to rule out any artifacts on the measured contraction, a time control was performed where only the vehicle was added (ultrapure Mili Q® water) in place of the substance to be tested, strictly following the same protocol as the other vats were added to the LDT's (FIG. 1).

α1B adrenoceptors = biological target: T2, α1B adrenoceptors (Rattus norvegicus, UniProt P15823); test: Binding of [3H]-prazosin to α1B adrenoceptors (rat liver membranes); settings: for IC50: read-out: log CI50 ± EPM (converted); for affinity range for α1B adrenoceptor: in words
T2 construct: from tissue; host or cells: rat liver membranes
T2 sequence (P15823 1-515): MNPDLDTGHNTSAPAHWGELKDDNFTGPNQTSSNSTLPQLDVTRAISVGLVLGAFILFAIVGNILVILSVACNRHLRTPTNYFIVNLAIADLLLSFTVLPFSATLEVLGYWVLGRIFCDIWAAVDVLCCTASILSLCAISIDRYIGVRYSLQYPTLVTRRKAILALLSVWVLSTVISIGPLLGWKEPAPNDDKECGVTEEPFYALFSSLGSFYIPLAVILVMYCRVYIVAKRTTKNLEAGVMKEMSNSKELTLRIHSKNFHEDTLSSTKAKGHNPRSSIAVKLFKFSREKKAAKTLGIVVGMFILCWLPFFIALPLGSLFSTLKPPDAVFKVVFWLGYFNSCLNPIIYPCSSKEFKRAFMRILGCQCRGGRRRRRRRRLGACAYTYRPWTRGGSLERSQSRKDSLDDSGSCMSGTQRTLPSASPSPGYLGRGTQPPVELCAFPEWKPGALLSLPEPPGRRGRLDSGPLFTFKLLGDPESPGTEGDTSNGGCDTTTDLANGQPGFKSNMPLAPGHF
Experimental: Following the protocol described previously in the literature membrane preparations from rat liver homogenates were obtained. Such membrane preparations are enriched in the adrenoceptor subtype α1B. The tissues obtained as described above (4 Rat livers corresponding to ˜30 g) were thawed and homogenized perforated similarly performed for rabbit liver. The homogenate obtained was filtered through four layers of gauze and then subjected to centrifugation 5,000×g for 20 minutes at 4° C., yielding a supernatant which was subsequently ultracentrifuged at 100,000×g for 60 minutes at 4° C., obtaining a pellet. This pellet was resuspended in buffer free of NaCl and subjected to a further […] under the same conditions.
Binding assays were standardized for α1B adrenoceptors in the same way adrenoceptor binding assays for α1A according to the literature, i.e. saturation and competition assays were performed on membrane preparations from rat liver, in this case using […] protein per tube contained […] suspension, in addition to various concentrations of LDT's (10^−9-10^−6 M).

[1] = Table 2, phenylephrine curve in presence of LTD 50 nM (62-69)
[2] = Table 4, Cheng-Prusoff, read-out: Ki
[3] = Table 2, 50 nM (62-69) or 10 nM (70, 39)
[4] = Table 2, 50 nM (62-69) or 10 nM (70, 39), read-out: KB
[5] = Table 5, Cheng-Prusoff, read-out: α1B Ki
[6] = KB (nM), Table 1, test substance at 50 nM (a), 10 nM (b) or 2 nM (c)
[7] = log KB ± EPM (M), Table 1, test substance at 50 nM (a), 10 nM (b) or 2 nM (c)
[8] = Table 2, phenylephrine curve in presence of LTD 10 nM (70 and 39)

SMILES | CR (α1D adrenoceptors; Table 2, LTD 50 nM (62-69)) | log CE50 ± EPM (M) LDT (α1D adrenoceptors; [1]) [M] | log KB ± EPM (M) (α1D adrenoceptors; [3]) | Kb (α1D adrenoceptors; [4]) [nM] | α1B log IC50 (M) (α1B adrenoceptors; Table 5) | pKi (α1B adrenoceptors; [5]) | Kb (α1D adrenoceptors; [6]) [nM] | further results
CCCCCN1CCN(c2ccccc2OC)CC1 [LDT 65] | 7.0 | −5.89 ± 0.05 |  |  |  |  |  | Kb (α1D adrenoceptors; KB (nM), Table 2, 50 nM (62-69) or 10 nM (70, 39)): 8.3 nM; pIC50 (α1B adrenoceptors): 6.48; pKi (α1B adrenoceptors): 6.56
COc1ccccc1N1CCN(CCC2CCCCC2)CC1 [LDT 6] |  |  |  |  |  |  |  | pKi (α1B adrenoceptors; [2]): 6.81; IC50 (α1B adrenoceptors; Table 4): 200 nM; affinity range for α1B adrenoceptor (α1B adrenoceptors): range μM
CCOc1ccccc1N1CCN(CC)CC1 [LDT 69] | 6.9 | −5.87 ± 0.07 | −8.06 ± 0.08 M | 8.71 | −6.53 ± 0.11 | 6.73 |  | 
CCN1CCN(c2ccccc2OC)CC1 [LDT 62] | 7 | −6.01 ± 0.06 | −8.08 ± 0.02 M | 8.3 | −6.27 ± 0.05 | 6.35 |  | 
COc1ccccc1N1CCN(CCc2ccccc2)CC1 [LDT 2] |  |  |  |  |  |  | 2.15 | Kb (α1D adrenoceptors; [7]): 3.09 nM; CR ± EPM (α1D adrenoceptors; 50 nM): 24.3 ± 8.7; pIC50 (α1B adrenoceptors): 7.20; pKi (α1B adrenoceptors): 7.31
CCN1CCN(c2ccccc2)CC1 [LDT 39] |  |  | −6.85 ± 0.08a M | 141 | −6.29 ± 0.10 | 6.37 |  | CR (α1D adrenoceptors; Table 2, LTD 10 nM (70 and 39)): 76.7; log CE50 ± EPM (M) LDT (α1D adrenoceptors; [8]): −4.91 ± 0.05 M
CCCCCCN1CCN(c2ccccc2OC)CC1 [LDT 66] | 32 | −5.29 ± 0.07 | −8.78 ± 0.06a M | 1.66 | −6.51 ± 0.18 | 6.66 |  | 
COc1cccc(CCN2CCN(c3ccccc3OC)CC2)c1 [LDT 3] |  |  |  |  |  |  | 1.78 | CR ± EPM (α1D adrenoceptors; 50 nM): 29.1 ± 1.8; pIC50 (α1B adrenoceptors): 7.02; pKi (α1B adrenoceptors): 7.13
COc1ccc(CCN2CCN(c3ccccc3OC)CC2)cc1 [LDT 4] |  |  |  |  |  |  | 3.14 | Kb (α1D adrenoceptors; [7]): 3.39 nM; CR ± EPM (α1D adrenoceptors; 50 nM): 16.9 ± 5.5; pIC50 (α1B adrenoceptors): 7.52; pKi (α1B adrenoceptors): 7.63
CCOc1ccccc1N1CCN(CCc2ccc(OC)c(OC)c2)CC1 [LDT 245] |  |  |  |  |  |  | 1.16 | Kb (α1D adrenoceptors; [7]): 1.17 nM
CCCCCCCCN1CCN(c2ccccc2OC)CC1 [LDT 68] | 12.8 | −5.81 ± 0.06 | −8.36 ± 0.05 M | 4.36 | −6.69 ± 0.10 | 6.76 |  | 
COc1ccc(CCN2CCN(c3ccccc3OC)CC2)cc1OC [LDT 5] |  |  |  |  |  |  | 0.57 | Kb (α1D adrenoceptors; [7]): 0.589 nM; CR ± EPM (α1D adrenoceptors; 10 nM): 18.5 ± 2.5; pKi (α1B adrenoceptors; [2]): 7.91; IC50 (α1B adrenoceptors; Table 4): 15.8 nM
CCCN1CCN(c2ccccc2OC)CC1 [LDT 63] | 3.1 | −6.80 ± 0.18 | −7.59 ± 0.12b M | 31.5 | −6.22 ± 0.05 | 6.29 |  | 
CCN1CCN(c2ccccc2O)CC1 [LDT 70] |  |  | −7.07 ± 0.08a M | 85.1 | −6.07 ± 0.10 | 6.15 |  | CR (α1D adrenoceptors; Table 2, LTD 10 nM (70 and 39)): 123.6; log CE50 ± EPM (M) LDT (α1D adrenoceptors; [8]): −4.86 ± 0.09 M
CCCCCCCN1CCN(c2ccccc2OC)CC1 [LDT 67] | 29.5 | −5.46 ± 0.08 | −8.74 ± 0.08a M | 1.82 | −6.87 ± 0.10 | 6.95 |  | 
CCOc1ccccc1N1CCN(CCc2ccc3c(c2)OCO3)CC1 [LDT 8] |  |  |  |  |  |  | 0.16 | Kb (α1D adrenoceptors; [7]): 0.166 nM; CR ± EPM (α1D adrenoceptors; 10 nM): 62.5 ± 15.5; pIC50 (α1B adrenoceptors): 7.93; pKi (α1B adrenoceptors): 8.04; affinity range for α1B adrenoceptor (α1B adrenoceptors): nanomolar range
CCCCN1CCN(c2ccccc2OC)CC1 [LDT 64] | 6.4 | −6.18 ± 0.08 | −7.93 ± 0.13 M | 11.7 | −6.33 ± 0.16 | 6.41 |  | 
